Tested on: influenza virus A/Puerto Rico/8/34 (H1N1), GS-R virus
Experiment: microbe, parasite or virus in culture
Assay type: cell-based

`CC(=O)NC12CC(C)(C)C3CCC1(C)CCCC32C` [Compound 1a, (1S,3aR,4R,7aS)-N-(2,2,4,7a-tetramethyloctahydro-1,4-etanoinden-3a-yl)-acetamide] was tested, and the “Fold increase of IC50 versus virus passaged without GS” value was “almost five-fold higher” and the IC50 (unidentified influenza virus, H1N1, MDCK, read-out: IC50 to GS) was 106 µM.

Reference: article PMC8619001, “Discovery of New Ginsenol-Like Compounds with High Antiviral Activity” (Molecules, 2021)
